Source: PubChem BioAssay AID1963870 (Molecular Pharmacology Branch, DTP, NCI, 2024)

Test system: 292921-168-R-J2-PDC KRAS tumor spheroid viability
Assay: Anticancer human tumor 292921-168-R-J2-PDC patient-derived pancreatic carcinoma cell line growth inhibition [KRAS2]
Settings: spheroids with HUVEC and MSC; for viability, T/C: stronger effect = lower value; active = viability on the fitted dose curve at most 10% of control; inactive = the rest
How it was run: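 Combination screen of spheroid viability in tumor-cell co-cultures with endothelial (HUVEC) and mesenchymal stem cell stroma. Each agent was tested in half-log dilutions, topping at clinical Cmax or at 10 microM without a known Cmax.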

[1] = curve of first compound, second compound 0.1 µM
[2] = curve of first compound, second compound 0.316 µM
[3] = curve of first compound, second compound 1 µM
[4] = curve of first compound, second compound 3.16 µM
[5] = curve of first compound, second compound 10 µM
[6] = second compound 0.1 µM, first compound 0.0316 µM
[7] = second compound 0.1 µM, first compound 0.1 µM
[8] = second compound 0.316 µM, first compound 0.0316 µM
[9] = second compound 0.316 µM, first compound 0.1 µM
[10] = second compound 1 µM, first compound 0.0316 µM
[11] = second compound 1 µM, first compound 0.1 µM
[12] = second compound 3.16 µM, first compound 0.0316 µM
[13] = second compound 3.16 µM, first compound 0.1 µM
[14] = second compound 10 µM, first compound 0.0316 µM
[15] = second compound 10 µM, first compound 0.1 µM
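Note: drug exposure lasted seven days after spheroids formed for three days.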
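Throughout, for viability, T/C: percent of DMSO vehicle control viability which is 100%.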

COc1cc(Nc2ncc3c(n2)-c2ccc(Cl)cc2C(c2c(F)cccc2OC)=NC3)ccc1C(=O)O + CNCc1ccccc1-c1csc(C(C)Nc2nc(C)nc3cc(OC)c(OC)cc23)c1
< 31.6 nM: IC50 [1] | IC50 [2] | IC50 [3] | IC50 [4] | IC50 [5]
active: viability, T/C [12] 0.07% | viability, T/C [13] 0.05% | viability, T/C (second compound 3.16 µM, first compound 0.316 µM) 0.04% | viability, T/C (second compound 3.16 µM, first compound 1 µM) 0.05% | viability, T/C (second compound 3.16 µM, first compound 3.16 µM) 0.08% | viability, T/C (second compound 3.16 µM, first compound 10 µM) 0.19% | viability, T/C [14] 0.11% | viability, T/C [15] 0.1% | viability, T/C (second compound 10 µM, first compound 0.316 µM) 0.13% | viability, T/C (second compound 10 µM, first compound 1 µM) 0.1% | viability, T/C (second compound 10 µM, first compound 3.16 µM) 0.09% | viability, T/C (second compound 10 µM, first compound 10 µM) 0.15%
inactive: viability, T/C [6] 27.9% | viability, T/C [7] 24.7% | viability, T/C (second compound 0.1 µM, first compound 0.316 µM) 28.1% | viability, T/C (second compound 0.1 µM, first compound 1 µM) 25.4% | viability, T/C (second compound 0.1 µM, first compound 3.16 µM) 22.3% | viability, T/C (second compound 0.1 µM, first compound 10 µM) 16.5% | viability, T/C [8] 25.8% | viability, T/C [9] 22% | viability, T/C (second compound 0.316 µM, first compound 0.316 µM) 25.9% | viability, T/C (second compound 0.316 µM, first compound 1 µM) 23.9% | viability, T/C (second compound 0.316 µM, first compound 3.16 µM) 21.1% | viability, T/C (second compound 0.316 µM, first compound 10 µM) 14.9% | viability, T/C [10] 20.6% | viability, T/C [11] 19.1% | viability, T/C (second compound 1 µM, first compound 0.316 µM) 23.1% | viability, T/C (second compound 1 µM, first compound 1 µM) 19.4% | viability, T/C (second compound 1 µM, first compound 3.16 µM) 17.6% | viability, T/C (second compound 1 µM, first compound 10 µM) 13.4%

CC1(C)CCC(CN2CCN(c3ccc(C(=O)NS(=O)(=O)c4ccc(NCC5CCOCC5)c([N+](=O)[O-])c4)c(Oc4cnc5[nH]ccc5c4)c3)CC2)=C(c2ccc(Cl)cc2)C1
2.17 µM [middle of 4 runs]: IC50 (curve of compound)
10.3% [middle of 5 runs]: viability, T/C (compound 10 µM)
inactive: viability, T/C (compound 0.0316 µM) 102% [middle of 5 runs] | viability, T/C (compound 0.1 µM) 98.2% [middle of 5 runs] | viability, T/C (compound 0.316 µM) 95.9% [middle of 5 runs] | viability, T/C (compound 1 µM) 100% [middle of 5 runs] | viability, T/C (compound 3.16 µM) 27.2% [middle of 5 runs]

CNCc1ccccc1-c1csc(C(C)Nc2nc(C)nc3cc(OC)c(OC)cc23)c1 (stereo unspecified)
active: viability, T/C (compound 10 µM) 0.15% [middle of 14 runs]
1.28 µM [middle of 5 runs]: IC50 (compound alone, run of 08/26/2021)
1.34 µM [middle of 5 runs]: IC50 (compound alone, run of 09/02/2021)
inactive: viability, T/C (compound 0.316 µM) 88.7% [middle of 16 runs]

Cn1ncnc1[C@H]1c2n[nH]c(=O)c3cc(F)cc(c23)N[C@@H]1c1ccc(F)cc1 + COc1cc2nc(C)nc(NC(C)c3cc(N)cc(C(F)(F)F)c3)c2cc1OC1CCOC1
inactive: viability, T/C (second compound 0.1 µM, first compound 0.000316 µM) 93.5% | viability, T/C (second compound 0.1 µM, first compound 0.001 µM) 92.1% | viability, T/C (second compound 0.1 µM, first compound 0.00316 µM) 85.8% | viability, T/C (second compound 0.1 µM, first compound 0.01 µM) 85.7% | viability, T/C [6] 68.6% | viability, T/C [7] 60.5% | viability, T/C (second compound 0.316 µM, first compound 0.000316 µM) 84.2% | viability, T/C (second compound 0.316 µM, first compound 0.001 µM) 87% | viability, T/C (second compound 0.316 µM, first compound 0.00316 µM) 84.8% | viability, T/C (second compound 0.316 µM, first compound 0.01 µM) 84.4% | viability, T/C [8] 70.3% | viability, T/C [9] 64.3% | viability, T/C (second compound 1 µM, first compound 0.000316 µM) 84% | viability, T/C (second compound 1 µM, first compound 0.001 µM) 84.9% | viability, T/C (second compound 1 µM, first compound 0.00316 µM) 74.9% | viability, T/C (second compound 1 µM, first compound 0.01 µM) 73.3% | viability, T/C [10] 69.6% | viability, T/C [11] 57.4% | viability, T/C (second compound 3.16 µM, first compound 0.000316 µM) 63.5% | viability, T/C (second compound 3.16 µM, first compound 0.001 µM) 60.1% | viability, T/C (second compound 3.16 µM, first compound 0.00316 µM) 56.4% | viability, T/C (second compound 3.16 µM, first compound 0.01 µM) 57.7% | viability, T/C [12] 52.1% | viability, T/C [13] 42% | viability, T/C (second compound 10 µM, first compound 0.000316 µM) 26.1% | viability, T/C (second compound 10 µM, first compound 0.001 µM) 27.6% | viability, T/C (second compound 10 µM, first compound 0.00316 µM) 30.6% | viability, T/C (second compound 10 µM, first compound 0.01 µM) 22.6% | viability, T/C [14] 23.6% | viability, T/C [15] 23.9%
< 0.316 nM: IC50 [5]
> 100 nM: IC50 [1] | IC50 [2] | IC50 [3]
37.3 nM: IC50 [4]
